Assay results: patent US9650395B2, “Antibacterial compounds and methods for use” (PTC Therapeutics, Inc., priority 2011, dated 2017)
Values after ≈ are worked out from the molar mass of the structure shown.

Legend:
[1] = test system: super sensitive Gram-negative Escherichia coli (E. coli) BAS849; assay: Antibacterial activity, microbroth dilution MIC, E. coli BAS849; assay type: cell-based; conditions: Escherichia coli; E. coli BAS849, microbroth dilution; read-out: MIC, BAS849
[2] = test system: control Gram-negative E. coli 25922 strain; assay: Antibacterial activity, microbroth dilution MIC, E. coli 25922; assay type: cell-based, Escherichia coli; conditions: Escherichia coli; E. coli 25922, microbroth dilution; read-out: MIC, 25922
[3] = test system: Gram-positive Staphylococcus aureus (S. aureus) 29213; assay: Antibacterial activity, microbroth dilution MIC, S. aureus 29213; assay type: cell-based; conditions: Staphylococcus aureus; S. aureus 29213, microbroth dilution; read-out: MIC, 29213
[4] = test system: quinolone resistant E. coli LZ3111; assay: Antibacterial activity, MIC, quinolone resistant E. coli LZ3111; assay type: cell-based, Escherichia coli; conditions: Escherichia coli, read-out: MIC, LZ3111
Text: (§1) The antibacterial activity from a microbroth dilution method may be presented as the minimum inhibitory concentration (MIC in […]). The MIC value is the lowest concentration of a drug which prevents macroscopically visible bacterial growth under test conditions.
Mutations in these regions are known to confer a high level resistance to the quinolone class of antibiotics.

[5] = test system: Acinetobacter baumannii (A. baumannii) BAA747; assay: Antibacterial activity, MIC, A. baumannii BAA747; assay type: cell-based; conditions: Acinetobacter baumannii; A. baumannii BAA747; read-out: MIC BAA747
[6] = test system: Klebsiella pneumoniae (K. pneumoniae) 35657; assay: Antibacterial activity, MIC, K. pneumoniae 35657; assay type: cell-based; conditions: Klebsiella pneumoniae
[7] = test system: resistant A. baumannii MXX2240 (MDR clinical isolate); assay: Antibacterial activity, MIC, resistant A. baumannii MXX2240; assay type: cell-based, Acinetobacter baumannii; conditions: Acinetobacter baumannii, resistant A. baumannii MMX2240, MDR clinical isolate; read-out: MIC MMX2240
[8] = test system: resistant K. pneumoniae MXX1232 (MDR clinical isolate); assay: Antibacterial activity, MIC, resistant K. pneumoniae MXX1232; assay type: cell-based, Klebsiella pneumoniae; conditions: Klebsiella pneumoniae; resistant K. pneumoniae MMX1232, MDR clinical isolate; read-out: MIC MMX1232
[9] = test system: Pseudomonas aeruginosa (P. aeruginosa) 27853; assay: Antibacterial activity, MIC, P. aeruginosa 27853; assay type: cell-based; conditions: Pseudomonas aeruginosa, P. aeruginosa 27853; read-out: MIC 27853
Text: as §1
Antibacterial activity of test compounds against the Gram-negative bacterium Pseudomonas aeruginosa (P. aeruginosa) 27853 is shown in Table 5.

SMILES | MIC [1] | MIC [2] | MIC [3] | MIC [4] | MIC [5] | MIC [6] | MIC [7] | MIC [8] | MIC [9]
CCc1c(-c2cnc(N(C)C)nc2)[nH]c(=O)c(C(=O)O)c1O [Cpd 20, 6-[2-(dimethylamino)pyrimidin-5-yl]-5-ethyl-4-hydroxy-2-oxo-1,2-dihydropyridine-3-carboxylic acid] | 12.5 to 150 µg/mL (≈ 41.1 to 493 µM) | 12.5 to 150 µg/mL (≈ 41.1 to 493 µM) | 12.5 to 150 µg/mL (≈ 41.1 to 493 µM) | 3.5 to 12.5 µg/mL (≈ 11.5 to 41.1 µM) | 12.5 to 150 µg/mL (≈ 41.1 to 493 µM) | 12.5 to 150 µg/mL (≈ 41.1 to 493 µM) | 3.5 to 12.5 µg/mL (≈ 11.5 to 41.1 µM) | 12.5 to 150 µg/mL (≈ 41.1 to 493 µM) | 12.5 to 150 µg/mL (≈ 41.1 to 493 µM)
CCc1cc(C(=O)O)c(=O)[nH]c1-c1ccc(N2CCC(NC3CC3)C2)cc1 (stereo not drawn) [Cpd 173, 6-{4-[3-(cyclopropylamino)pyrrolidin-1-yl]phenyl}-5-ethyl-2-oxo-1,2-dihydropyridine-3-carboxylic acid] | < 1 µg/mL | 1 to 3.5 µg/mL (≈ 2.72 to 9.53 µM) | 12.5 to 150 µg/mL (≈ 34 to 408 µM) | 12.5 to 150 µg/mL (≈ 34 to 408 µM) | 3.5 to 12.5 µg/mL (≈ 9.53 to 34 µM) | 1 to 3.5 µg/mL (≈ 2.72 to 9.53 µM) | 12.5 to 150 µg/mL (≈ 34 to 408 µM) | 12.5 to 150 µg/mL (≈ 34 to 408 µM) | 12.5 to 150 µg/mL (≈ 34 to 408 µM)
CCc1cc(C(=O)O)c(=O)[nH]c1-c1ccc(N2CCC(c3ccncc3)C2)cc1 (stereo not drawn) [Cpd 226, 5-ethyl-2-oxo-6-{4-[3-(pyridin-4-yl)pyrrolidin-1-yl]phenyl}-1,2-dihydropyridine-3-carboxylic acid] | < 1 µg/mL | 1 to 3.5 µg/mL (≈ 2.57 to 8.99 µM) | 3.5 to 12.5 µg/mL (≈ 8.99 to 32.1 µM) | 12.5 to 150 µg/mL (≈ 32.1 to 385 µM) | 1 to 3.5 µg/mL (≈ 2.57 to 8.99 µM) | 3.5 to 12.5 µg/mL (≈ 8.99 to 32.1 µM) | 12.5 to 150 µg/mL (≈ 32.1 to 385 µM) | 12.5 to 150 µg/mL (≈ 32.1 to 385 µM) | 12.5 to 150 µg/mL (≈ 32.1 to 385 µM)
CCc1cc(C(=O)O)c(=O)[nH]c1-c1ccc(N2CCC(c3ccccn3)C2)cc1 (stereo not drawn) [Cpd 227, 5-ethyl-2-oxo-6-{4-[3-(pyridin-2-yl)pyrrolidin-1-yl]phenyl}-1,2-dihydropyridine-3-carboxylic acid] | < 1 µg/mL | 1 to 3.5 µg/mL (≈ 2.57 to 8.99 µM) | 1 to 3.5 µg/mL (≈ 2.57 to 8.99 µM) | 12.5 to 150 µg/mL (≈ 32.1 to 385 µM) | 1 to 3.5 µg/mL (≈ 2.57 to 8.99 µM) | 3.5 to 12.5 µg/mL (≈ 8.99 to 32.1 µM) | 12.5 to 150 µg/mL (≈ 32.1 to 385 µM) | 12.5 to 150 µg/mL (≈ 32.1 to 385 µM) | 3.5 to 12.5 µg/mL (≈ 8.99 to 32.1 µM)
CCc1cc(C(=O)O)c(=O)[nH]c1-c1ccc(N2CCC(O)(CC)C2)cc1 (stereo not drawn) [Cpd 232, 5-ethyl-6-[4-(3-ethyl-3-hydroxypyrrolidin-1-yl)phenyl]-2-oxo-1,2-dihydropyridine-3-carboxylic acid] | < 1 µg/mL | 1 to 3.5 µg/mL (≈ 2.81 to 9.82 µM) | 3.5 to 12.5 µg/mL (≈ 9.82 to 35.1 µM) | 12.5 to 150 µg/mL (≈ 35.1 to 421 µM) | 1 to 3.5 µg/mL (≈ 2.81 to 9.82 µM) | 1 to 3.5 µg/mL (≈ 2.81 to 9.82 µM) | 12.5 to 150 µg/mL (≈ 35.1 to 421 µM) | 12.5 to 150 µg/mL (≈ 35.1 to 421 µM) | 12.5 to 150 µg/mL (≈ 35.1 to 421 µM)
CCc1c(-c2ccc(N3CCC(c4ccccn4)C3)cc2)[nH]c(=O)c(C(=O)O)c1O (stereo not drawn) [Cpd 286, 5-ethyl-4-hydroxy-2-oxo-6-{4-[3-(pyridin-2-yl)pyrrolidin-1-yl]phenyl}-1,2-dihydropyridine-3-carboxylic acid] | < 1 µg/mL | 1 to 3.5 µg/mL (≈ 2.47 to 8.63 µM) | 1 to 3.5 µg/mL (≈ 2.47 to 8.63 µM) | 12.5 to 150 µg/mL (≈ 30.8 to 370 µM) | 3.5 to 12.5 µg/mL (≈ 8.63 to 30.8 µM) | 12.5 to 150 µg/mL (≈ 30.8 to 370 µM) | 12.5 to 150 µg/mL (≈ 30.8 to 370 µM) | 12.5 to 150 µg/mL (≈ 30.8 to 370 µM) | 12.5 to 150 µg/mL (≈ 30.8 to 370 µM)
CCc1c(-c2ccc(N3CCC(O)(CC)C3)cc2)[nH]c(=O)c(C(=O)O)c1O (stereo not drawn) [Cpd 288, 5-ethyl-6-[4-(3-ethyl-3-hydroxypyrrolidin-1-yl)phenyl]-4-hydroxy-2-oxo-1,2-dihydropyridine-3-carboxylic acid] | < 1 µg/mL | 1 to 3.5 µg/mL (≈ 2.69 to 9.4 µM) | 1 to 3.5 µg/mL (≈ 2.69 to 9.4 µM) | 3.5 to 12.5 µg/mL (≈ 9.4 to 33.6 µM) | 1 to 3.5 µg/mL (≈ 2.69 to 9.4 µM) | 3.5 to 12.5 µg/mL (≈ 9.4 to 33.6 µM) | 1 to 3.5 µg/mL (≈ 2.69 to 9.4 µM) | 12.5 to 150 µg/mL (≈ 33.6 to 403 µM) | 3.5 to 12.5 µg/mL (≈ 9.4 to 33.6 µM)
CCc1c(-c2cnc(N(C)C)cn2)[nH]c(=O)c(C(=O)O)c1O [Cpd 312, 6-(5-(dimethylamino)pyrazin-2-yl)-5-ethyl-4-hydroxy-2-oxo-1,2-dihydropyridine-3-carboxylic acid] | < 1 µg/mL | 12.5 to 150 µg/mL (≈ 41.1 to 493 µM) | 12.5 to 150 µg/mL (≈ 41.1 to 493 µM) | 12.5 to 150 µg/mL (≈ 41.1 to 493 µM) | 3.5 to 12.5 µg/mL (≈ 11.5 to 41.1 µM) | 3.5 to 12.5 µg/mL (≈ 11.5 to 41.1 µM) | 12.5 to 150 µg/mL (≈ 41.1 to 493 µM) | 12.5 to 150 µg/mL (≈ 41.1 to 493 µM) | 12.5 to 150 µg/mL (≈ 41.1 to 493 µM)
CCc1c(-c2cnc(N3CCCC3)cn2)[nH]c(=O)c(C(=O)O)c1O [Cpd 313, 5-ethyl-4-hydroxy-2-oxo-6-(5-(pyrrolidin-1-yl)pyrazin-2-yl)-1,2-dihydropyridine-3-carboxylic acid] | < 1 µg/mL | 12.5 to 150 µg/mL (≈ 37.8 to 454 µM) | 12.5 to 150 µg/mL (≈ 37.8 to 454 µM) | 12.5 to 150 µg/mL (≈ 37.8 to 454 µM) | 3.5 to 12.5 µg/mL (≈ 10.6 to 37.8 µM) | 3.5 to 12.5 µg/mL (≈ 10.6 to 37.8 µM) | 12.5 to 150 µg/mL (≈ 37.8 to 454 µM) | 12.5 to 150 µg/mL (≈ 37.8 to 454 µM) | 12.5 to 150 µg/mL (≈ 37.8 to 454 µM)
